Data taken from patent US20130259830A1, “CRTH2 MODULATORS” (Ironwood Pharmaceuticals, Inc., priority 2010, published 2013).

Columns and labels:
CRTH2 [1] = target: T1, CRTH2 (Homo sapiens, UniProt Q9Y5Y4); test: DPBS CD11b antagonist assay (CD11b expression in eosinophils challenged with 15R-Methyl-PGD2); assay type: cell-based; conditions: polymorphonuclear cells in PBS with CaCl2/MgCl2; agonist 15R-Methyl-PGD2 10 nM; eosinophils gated by flow cytometry
T1 construct: endogenous in cells; host or cells: eosinophils in human whole blood
T1 sequence (Q9Y5Y4 1-395): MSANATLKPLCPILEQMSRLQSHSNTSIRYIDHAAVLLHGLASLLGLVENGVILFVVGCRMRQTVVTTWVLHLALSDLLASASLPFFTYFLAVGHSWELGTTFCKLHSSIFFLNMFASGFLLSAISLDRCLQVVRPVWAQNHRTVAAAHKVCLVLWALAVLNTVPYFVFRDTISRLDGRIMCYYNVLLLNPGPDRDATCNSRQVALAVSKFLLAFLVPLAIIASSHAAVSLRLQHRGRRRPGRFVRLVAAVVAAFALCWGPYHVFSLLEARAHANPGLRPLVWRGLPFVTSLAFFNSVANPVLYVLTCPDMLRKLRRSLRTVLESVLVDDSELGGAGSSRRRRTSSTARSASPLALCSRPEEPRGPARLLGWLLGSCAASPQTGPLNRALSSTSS
Method: DPBS CD111b Antagonist Assay.
The potential CRTH2 antagonist, activity of certain compounds was tested using a CD11b expression assay using essentially the method described by Monneret et al. (J Pharmacol Exp Ther 304:349-55, 2003). Briefly, polymorphonuclear cells (0.5 ml; 10^6/ml cells) in PBS containing 0.9 mM CaCl2 and 0.5 mM MgCl2) were preincubated with various concentrations of test compounds at room temperature for 10 minutes before they were challenged with the agonist 15R-Methyl-PGD2 (10 nM). The incubations were terminated by the addition of ice-cold FACSFlow (BD Biosciences; Cat#342003) and centrifugation (400 g for 5 minutes at 4° C.). The cells were then incubated for 30 minutes at 4° C. with a mixture of PE-labeled mouse anti-human VLA-4 (5 μl; BD Biosciences) and FITC-labeled mouse anti-human CD11b (10 μl; Beckman Coulter). The cells were then incubated with Optilyse C (0.25 ml; Beckman Coulter) for 15 minutes, centrifuged, and then fixed in PBS (0.4 ml; calcium and magnesium free) containing 1% formaldehyde. The distribution of fluorescence intensities among 60,000 cells was measured by flow cytometry. Eosinophils were gated out on the basis of their granularity (high side scatter) and labeling with VLA-4 (PE fluorescence). CD11b was then measured in the eosinophil region on the basis of fluorescence due to FITC. All data were corrected for the value obtained for the corresponding isotope control antibody.

CRTH2 [2] = target: T1, CRTH2; test: Human whole blood CD11b antagonist assay (CD11b expression in eosinophils challenged with 15-R-methyl-PGD2); assay type: cell-based; conditions: 37° C. 10 minutes preincubation, agonist 15R-Methyl-PGD2 10 nM, eosinophils gated by flow cytometry
Method: Human Whole Blood […] Antagonist Assay (Modified from Nicholson, et al. Pulmonary Pharmacology and Therapeutics: 20 (2007); 52-59).
The potential CRTH2 antagonist activity of certain compounds was tested in human whole blood using an assay that tests the ability of the compounds to block the CD11b expression in eosinophils by 15-R-methyl-PGD2. A CRTH2 antagonist should block CD11b expression by subsequently added 15-Methyl-PGD2. Human whole blood (200 μL) was incubated at 37° C. for 10 minutes in the presence of various concentrations of test compounds before being challenged with the agonist 1-5R-Methyl-PGD2 (10 nM). Reactions were terminated by the addition of ice-cold PBS+0.5% BSA+2 mM EDTA (1 mL) and centrifugation (300×g for 5 minutes at 4° C.) Cells were then incubated at 4° C. for 10 min in the presence of human IgG. Cells were then incubated for 30-45 min with a mixture of PE-Cy5-labeled mouse anti-human CD16 (10 ul; BD Biosciences) and FITC-labeled mouse anti-human CD11b (10 μL; Beckman Coulter.) After rinsing (1 mL ice-cold PBS+0.5% BSA+2 mM EDTA), red blood cells were lysed by the addition of 1 mL ice-cold H2O to the cell pellet for 30 sec-1 min immediately followed by the addition of 3.5% NaCl (300 μL.) Cells were then rinsed (2×−1 ml ice cold PBS+0.5% BSA+2m MEDTA) and fixed in PBS containing 1% formaldehyde. The distribution of fluorescence intensities was measured by flow cytometry. Eosinophils were gated out on the basis of their granularity (high side scatter) and absence of CD-16. CD11b was then measured on this eosinophil population on the basis of fluorescence due to FITC.

| SMILES | IC50 (CRTH2 [1]) | IC50 (CRTH2 [2]) |
| --- | --- | --- |
| Cc1ccc(S(=O)(=O)N(C)c2cccc(Cc3c4c(n(CC(=O)O)c3C)CC(C)(C)CC4=O)c2)cc1 [Compound I-45, 2-(3-(3-(N,4-Dimethylphenylsulfonamido)benzyl)-2,6,6-trimethyl-4-oxo-4,5,6,7-tetrahydro-1H-indol-1-yl)acetic acid] | 100 to 500 nM | > 3000 nM |
| Cc1c(Cc2ccccc2NS(=O)(=O)c2ccc(OCc3ccccc3)cc2)c2c(n1CC(=O)O)CC(C)(C)CC2=O [Compound I-46, 2-(3-(2-(4-(Benzyloxy)phenylsulfonamido)benzyl)-2,6,6-trimethyl-4-oxo-4,5,6,7-tetrahydro-1H-indol-1-yl)acetic acid] | < 1 nM | 5 to 20 nM |
| Cc1c(Cc2ccccc2NS(=O)(=O)N2CCCC2)c2c(n1CC(=O)O)CC(C)(C)CC2=O [Compound I-47] | 5 to 20 nM | 20 to 100 nM |
| Cc1c(Cc2ccccc2NS(=O)(=O)c2ccc(O)cc2)c2c(n1CC(=O)O)CC(C)(C)CC2=O [Compound I-48, 2-(3-(2-(4-Hydroxyphenylsulfonamido)benzyl)-2,6,6-trimethyl-4-oxo-4,5,6,7-tetrahydro-1H-indol-1-yl)acetic acid] | < 1 nM | 1 to 5 nM |
| Cc1c(Cc2ccccc2NS(=O)(=O)N2CCOCC2)c2c(n1CC(=O)O)CC(C)(C)CC2=O [Compound I-49] | 1 to 5 nM | 20 to 100 nM |
| Cc1c(Cc2ccccc2S(=O)(=O)N2CCOCC2)c2c(n1CC(=O)O)CCNC2=O [Compound I-50, 2-(2-Methyl-3-(2-(morpholinosulfonyl)benzyl)-4-oxo-4,5,6,7-tetrahydro-1H-pyrrolo[3,2-c]pyridin-1-yl)acetic acid] | < 1 nM | 1 to 5 nM |
| Cc1c(Cc2cccc(N(C)S(=O)(=O)N3CCCC3)c2)c2c(n1CC(=O)O)CC(C)(C)CC2=O [Compound I-51, 2-(2,6,6-Trimethyl-3-(3-(N-methylpyrrolidine-1-sulfonamido)benzyl)-4-oxo-4,5,6,7-tetrahydro-1H-indol-1-yl)acetic acid] | 100 to 500 nM | > 3000 nM |
| Cc1c(Sc2ccccc2NS(=O)(=O)c2ccccc2)c2c(n1CC(=O)O)CC(C)(C)CC2 [Compound I-52, 2-(2,6,6-trimethyl-3-(2-(phenylsulfonamido)phenylthio)-4,5,6,7-tetrahydro-1H-indol-1-yl)acetic acid] | < 1 nM | 5 to 20 nM |
